Results published in ChEMBL document CHEMBL3507680, “University of Dundee, Gates Library screen for HepG2 cell viability”.

Assay: Human HepG2 cell viability assay in 384 well format
Type: toxicity, cell-based
Parameters: dose 125 nL, time 70.5 hour; concentration not given beside the values
Details: HepG2 cells, read-out: Inhibition

Structure (SMILES)	cytotoxicity at 70.5 h [%]
O=C(Cn1cncn1)NCC1CCN(Cc2ccccc2Cl)CC1	2.75
COc1ccc(CCN2CCCC(CN(C)Cc3ccc(C)o3)C2)cc1 (stereo not drawn)	-5.02
CCOCCCC(=O)N(C)C(c1cccc(F)c1)c1ccccn1 (stereo not drawn)	-23.5
O=C(CCOc1ccc(F)cc1)N1CCCC1Cn1cccn1 (stereo not drawn)	-2.78
CCc1n[nH]c(C2CN(C(=O)Cc3cccs3)CCO2)n1 (stereo not drawn)	25.1
O=C(Cn1cc(-n2cccc2)cn1)NCC1CCC1	-10.7
CCN1C(=O)CCC12CCN(S(=O)(=O)c1ccccc1)CC2	-4.14
Cn1c2ncccc2c(=O)n1CC(=O)NCCC1=CCCCC1	-2.08
CC(NC(=O)CCCOc1ccc(F)cc1)c1nnc2n1CCC2 (stereo not drawn)	-1.76
CC(=O)N1CCN([C@@H]2CN(C(=O)c3ccccc3C)C[C@H]2O)CC1	-3.99
CCNc1ncc(C(=O)NCCCc2ccncc2)cn1	-3.04
COCCN1CCN(C(=O)N2CCCC2)Cc2ccc(C)nc21	24.9
CC(Cn1cccn1)NC(=O)NCCc1cccs1 (stereo not drawn)	-6.38
CSCCC(Nc1nc(C)cc(C)n1)C(=O)NC(C)(C)CO (stereo not drawn)	25.7
O=C(CCc1cccs1)N1CCC(N2CCNC2=O)CC1	-0.95
Cc1noc(C)c1CC(=O)NCc1ccnc(OCC(F)(F)F)c1	-7.45
CCCc1noc(CCC(=O)N2CCCC2c2cccc(OC)c2)n1 (stereo not drawn)	-8.65
COc1ccccc1OCCNC(=O)CN1CCN(C)CC1C (stereo not drawn)	-2.58
CCNC(=O)C1CCN(Cc2ccc(C(=O)Nc3nnc(C)s3)cc2)C1 (stereo not drawn)	26.3
N#Cc1ccccc1CN1C[C@@H]2CC[C@H](C1)N(Cc1cscn1)C2=O	-11.1
Cc1ccc(C(=O)N2C[C@@H](OCc3cccnc3)[C@H]3OCCC[C@H]32)o1	3.45
O=C(c1cccnc1)N1CCN(CC2CC2)c2ncccc2C1	0.755
CC(C)N1CCC2(CCCN(c3nccc(C(F)(F)F)n3)C2)CC1	-2.7

Structure (SMILES)	cytotoxicity at 70.5 h [%]
Cc1ccc(C(=O)N2C[C@@H](C(=O)O)[C@H](c3ccncc3)C2)cc1F	-5.6
O=C(O)CC(NC(=O)c1cc(Br)c[nH]1)c1ccccc1 (stereo not drawn)	-7.36
CCOc1ccc(C#N)cc1NCC(=O)NC(=O)Nc1ccccc1	-8.89
CCc1nn2c(=N)c(C#N)n[nH]c2c1-c1ccc(OC)cc1	-18.3
O=C(O)[C@]12CCCN(Cc3nccs3)[C@@H]1CCN(c1cnccn1)C2	-5.49
CN1CCN([C@@H]2CN(C(=O)c3ccnnc3)[C@@H]3CCCO[C@H]23)CC1	-3.3
CCCC(C)CN1CCC(n2cc(CCCO)nn2)CC1 (stereo not drawn)	-4.4
O=C(Cn1cnnn1)N1CCCCC1Cn1cccn1 (stereo not drawn)	17.9
COCCCN1C(=O)CC[C@H]2CN(c3ccc(C(N)=O)cn3)CC[C@H]21	4.03
COc1cccc(CN2CCCC2c2c(C)nn(C)c2C)c1 (stereo not drawn)	3.04
c1csc(-c2nc(CN3CCOC(Cn4cncn4)C3)cs2)c1 (stereo not drawn)	-26.8
CC(C)n1[nH]c(=O)c2c1NC(=O)CC2c1ccncc1 (stereo not drawn)	-11.3
CC(C)Nc1ncccc1C(=O)NCc1ccnn1C	6.47
CCOCC1CN(c2ncc(F)cn2)Cc2cn(CC)nc21 (stereo not drawn)	-11.1
COCC(=O)N1CCC2(CCN(Cc3cccnc3)C2)CC1	-7.11
O=C(c1sccc1C1CC1)N1CCN(CC(F)(F)F)CC1	-1.63
CC[C@H](Cn1ncc2ccccc2c1=O)NC(=O)c1ccccn1	-7.7
O=C1CSc2ccc(C(=O)N3CCCC(n4ccnc4)C3)cc2N1 (stereo not drawn)	-1.51
CC(O)c1cn(CC2CCN(C(=O)CN3CCCC3=O)CC2)nn1 (stereo not drawn)	-10.1
CN(C)C(=O)COCc1nn(C)c2c1CCN(Cc1ccco1)C2	-5.57
OCC1(O)CCCN(Cc2noc(-c3ccccc3)n2)CC1 (stereo not drawn)	26.3
COCc1nccc(C2CCCN(Cc3ccccc3C#N)C2)n1 (stereo not drawn)	-6.99
OCCOc1cc(F)ccc1NCc1nc(-c2cccs2)no1	-10.9

Structure (SMILES)	cytotoxicity at 70.5 h [%]
CC(=O)N[C@H]1CN(S(=O)(=O)N(C)Cc2ccccc2)C[C@@H]1C1CC1	-2.36
CN(C)[C@@H]1CN(Cc2cccnc2)C[C@H]1c1cn(C)c2ccccc12	-2.36
CC(C)C(=O)N1CCC(n2nc(-c3ccco3)ccc2=O)CC1	15.9
COc1cccc(OCCc2nc3c(cc2C(N)=O)CCC3)c1	1.85
Cc1cccc(CNC(=O)C2CCC(=O)N(Cc3ccccc3F)C2)n1 (stereo not drawn)	-9.23
Cc1cc(CN2CCCC(CNC(=O)Cn3cccn3)C2)oc1C (stereo not drawn)	-6.83
CC1CN(CC(=O)NCCc2ccncc2)Cc2ccccc2O1 (stereo not drawn)	-7.7
COCCNc1ncnc2c1CCN(C(=O)CC1CCC(=O)N1)CC2 (stereo not drawn)	-12.7
CN(C)CCCNC(=O)c1cc(-c2ccc3c(c2)CCO3)n[nH]1	10.7
CC(C)CN1C[C@@H]2CN(C(=O)[C@H]3CCCO3)C[C@@H]2C1=O	-14.1
Cc1cc(C2CCCN(C(=O)COc3ccc(F)cc3F)C2)n[nH]1 (stereo not drawn)	-4.95
CC[C@@H](c1ccccc1)n1c(C2CC2)n[nH]c1=O	-13
Cc1cc(C)n(CC2CCCN2C(=O)c2ccc(NC3CC3)nc2)n1 (stereo not drawn)	20.6
CN(C)C(=O)C1CCc2nnc(C(C)(C)C)n21 (stereo not drawn)	-3.32
CCOc1ccc(CN2CCC(c3ccn[nH]3)C2)cc1CO (stereo not drawn)	3.78
CC(C)N1CCCC(CNC(=O)c2ccnc(-n3ccnc3)c2)C1 (stereo not drawn)	-4.35
Cn1cc(CN2CCO[C@H]3CN(Cc4ccco4)C[C@H]32)cn1	-2.62
O=C(c1ccccn1)N1CCc2c(nc(-c3ccncc3)[nH]c2=O)C1	-6.64
CCN(CCO)C(=O)Nc1ccc(OCCOC)nc1	2.78
CC(C)(C)n1cc(C(=O)N2CCCN(Cc3cccs3)CC2)cn1	-2.48
Cc1ccsc1-c1cc(C(=O)O)cc(S(=O)(=O)NCc2ccccn2)c1	-9.5
c1cnn(CC2CN(c3ncnc4[nH]ccc34)CCO2)c1 (stereo not drawn)	-0.974
CCN(C)S(=O)(=O)NC(C)c1cnc(N(C)C2CCCCC2)nc1C (stereo not drawn)	-4.92

Structure (SMILES)	cytotoxicity at 70.5 h [%]
Cc1c(C(=O)NC(C)C)nnn1-c1cccc(C(F)(F)F)c1	-4.53
CCC1CCCCCN1C(=O)c1ccc(N2CCC(O)CC2)cc1 (stereo not drawn)	-1.83
CNC(=O)CS(=O)(=O)Cc1cc(Cl)c2c(c1)OCCO2	-4.61
O=C(NCc1cnc2n1CCN(Cc1nccs1)CC2)C1CCC1	-2.78
Cc1cccc(C)c1OCCNC(=O)CN1CCN(C)CC1C (stereo not drawn)	16.7
Cc1ccc(C(=O)N2CCOC(c3nc(C(C)(C)C)n[nH]3)C2)c(=O)[nH]1 (stereo not drawn)	0.0481
CCC(CC)c1cc(CNC(=O)N2CCCC(N(C)C)C2)on1 (stereo not drawn)	-9.56
Cc1cc(CN(C)Cc2ncc(-c3ccccc3)o2)no1	-0.145
CS(=O)(=O)N1CCOCC2(CCN(Cc3ccc[nH]3)CC2)C1	-5.4
Cc1nc(Nc2nncs2)cc(C2CNC2)n1	-5.34
CCn1c(C)nnc1SCCNc1cc(OC)ncn1	-18.6
O=C(NCC1Cn2nnc(-c3ccccc3)c2CO1)c1ccc[nH]1 (stereo not drawn)	1.41
CC(C#N)CSc1ccccc1NCC(=O)Nc1ccc(F)cc1 (stereo not drawn)	2.62
CN(Cc1ncc[nH]1)c1nc(-c2ccccn2)nc2c1CCNCC2	-11.9
O=S(=O)(C1CC1)N1CCC2(CCCN(c3ncc(F)cn3)C2)C1 (stereo not drawn)	-11.2
Cc1cnc(CN2CCOC(Cn3nc(C)cc3C)C2)cn1 (stereo not drawn)	13.7
CC(C)C(=O)N1CCN(c2cc(N(C)C)cnn2)CC1	-5.3
Cn1cc(-c2nc(C(=O)N3CCCC3Cn3cccn3)cs2)cn1 (stereo not drawn)	-4.01
COCC(=O)N1CC2=CC(C)(C)COc3ccc(OC)c(c32)C1	21.5
Cc1cccnc1CN1CC[C@@](C)(O)[C@H](Oc2ccccc2)C1	-7.26
COc1c(CNCCc2c[nH]c3cc(F)ccc23)c(C)nn1C	3.85
Cc1cc(NC(=O)CN2CCCC2c2noc(C(C)C)n2)no1 (stereo not drawn)	14.1
NCc1n[nH]c(-c2cccc(F)c2)n1	32.2

Structure (SMILES)	cytotoxicity at 70.5 h [%]
CNC(=O)C1(c2cnccn2)CCCN1C(=O)c1cccc(F)c1 (stereo not drawn)	20.4
CCN1CCC(NC(=O)Cc2csc(C(C)(C)C)n2)CC1	24.8
Cc1cn2c(n1)CCC(NC(=O)c1ccc(S(C)(=O)=O)o1)C2 (stereo not drawn)	6.89
Cn1nc(CO)c2c1CCN(c1ncnc3c1CCNC3)C2	-6.14
CCNC(=O)[C@@H]1C[C@@H](NC(=O)CSC)CN1Cc1ccncc1	-10.5
O=C(c1cc(COc2ccc3c(c2)OCO3)[nH]n1)N1CCSCC1	-0.532
COc1ccccc1CN1CC[C@]2(C[C@@H](OCC(=O)N(C)C)CO2)C1	-3.75
NS(=O)(=O)Cc1ccc(CNC(=O)NCC2CCOC2)cc1 (stereo not drawn)	-15.3
Cc1nc(C)n(CC2CCCN2CCc2ccncc2)n1 (stereo not drawn)	18.1
Cc1ncc(CN2CCCC2)c2cc(C(=O)c3ccc(Br)cc3)oc12	-14.3
CN(Cc1csc(-c2cccs2)n1)Cc1cccnc1N	-14.6
Cc1cncc(NCC(O)c2ccco2)n1 (stereo not drawn)	-9.53
CCc1cnccc1C(=O)NC1CCN(C(=O)C2CCCCC2)CC1	-8.95
O=C1CC(c2cccnc2)c2c(c(C(=O)O)cn2-c2ccc(Cl)cc2)N1 (stereo not drawn)	-7.08
O=C(CN(Cc1ccccc1)CC1CCOCC1)Nc1nccs1	-0.217
CN(Cc1nnc(C2CC2)n1C)C1CCN(Cc2ccccc2F)C1 (stereo not drawn)	-2.35
CC(C)(C)OC(=O)N1CCN(C(=O)CCn2cccn2)CC1	-4.56
Cc1cc(-c2ccc(C(C)N3CCOCC3)cc2)cnc1N (stereo not drawn)	-4.56
O=C(CCNC(=O)c1ccoc1)Nc1cc(F)cc(F)c1	-10.4
O=C(N[C@@H]1CN(Cc2cccc3[nH]ccc23)C[C@H]1O)c1cscn1	-4.99
Cc1cc(C)cc(OCC(=O)NC2CCN(S(C)(=O)=O)CC2)c1	23.8
